“Also recorded” adds a separate entry of the source. Like-named read-outs stand apart in the source and are kept apart here.
Columns and labels:
[1] = tested on: Phaeodactylum tricornutum; experiment: Microplate assay: growth (absorbance 680 nm) and intracellular lipids (Nile Red fluorescence); format: cell-based; details: P. tricornutum, 400 nM
Nannochloris sp. [2] = experiment: as above; format: cell-based; details: 200 nM; initial microplate screen, relative to control
Protocol: Stock cultures were aerated by stirring with bubbling air (homemade manifold with Petco air pump, 2-4% CO2) or by orbital shaking (Thermo Scientific MAXQ 2000) at a constant speed of 150 rpm at 22±3° C. with a 16:8 hour light/dark cycle. Stocks were kept at stationary phase for use. Algae were prepared as dictated by culture center.
Compounds were selected based on reported biological activity in non-microalgae organisms. To ensure that compounds retained their quality, they were stored under advised conditions after purchasing from the manufacturer. Solutions of all assay compounds were prepared as 10 mM stock solutions by dissolving in DMSO in 2-dram amber vials and then stored in darkness −20° C. 96-well PCR plates were used to create a stock plate layout that was then transferred to the algae microplates. A plate map was used to distribute each compound to a well based on molecule name, collection number, and CAS number. For 20 μM and 200 nM assay plates, 10 mM compound stock in DMSO was diluted into plate maps of 5 mM and 50 μM assay stocks, respectively.
All materials for assay experiments were autoclaved before each use to maintain axenic algae cultures. Algae species were checked for homogeneity using a TS-100 light microscope (Nikon, Japan). […] Diluted stock solutions were made immediately prior to use for consistency and optimal plate growth. Cell density was measured on a Thermo Scientific Genesys 10S Vis Spectrophotometer (ThermoFisher, San Jose), using a 1 mL cuvette at 680 nm.
Plates were originally run in triplicate, before replicates were increased to quadruplicate, along with a separate control plate to compare growth. Due to extensive evaporation in exterior wells over time, our unique algae plate layout was designed to use the 60 interior wells out of 96 wells for the experiment. The 36 outer wells were filled with Millipore water and media to prevent evaporation and edge effects in the inner algae wells, as well as serve as blanks. The 60 wells with algae contained a total volume of 251 μL (100 μL of media+DMSO compound stock +150 μL dilute algae stock). For 20 μM and 200 nM assay plates, 10 mM compound stock in DMSO is diluted into plate maps of 5 mM and 50 μM assay stocks, respectively. […] Plates were parafilmed during growth to limit the amount of evaporation that can occur. Plates were numbered, and numerically ordered to ensure they got the same shaker space.
The shakers are kept at a constant shaking of 150 rpm. Ambient temperature is 22±3° C.

Nannochloropsis oculata [3] = experiment: Lipid composition of batch culture extracts (fatty acid saturation / PUFA by 1H NMR, MALDI-TOF, GC/MS); format: cell-based
Nannochloropsis oculata [4] = tested on: Nannochloropsis oculata
microalgae = experiment: Microplate assay (growth, Nile Red lipids), algae strain not stated
[5] = tested on: Phaeodactylum tricornutum; experiment: 500 mL batch culture: growth, dry weight and lipid extract (gravimetric); format: cell-based; details: 500 mL batch culture
Protocol: (§1) Batch cultures were grown in 500 mL Pyrex media bottles with stirring and air bubbling (homemade manifold with Petco air pump, 2-4% CO2). Incoming air was sterile filtered by Polyvent 4 disposable filters (Whatman, Kent, UK). […] To minimize bacterial contamination, all equipment and materials were autoclaved and media was added to flask in a Purifier Vertical Clean bench (Labconco, Kansas City, Mo.). […] The amount of DMSO is standardized for all experiments to 0.4%.
(§2) For all compound cultures, the 2 mL DMSO stock solution was added to media (without algae) first and mixed well. Control cultures were grown without DMSO. DMSO controls consisted of 0.04-1.0% DMSO. After the addition of algae and media, the container was plugged with a bug stopper vented closure cap and mixed thoroughly. Absorbance is measured immediately for Day 0 analysis. Afterward, absorbance was measured every 1-2 days with a cuvette (1 mL volume) on the Thermo Scientific Genesys 10S V is Spectrophotometer (ThermoFisher, San Jose) at 680 nm.
(§3) Batch cultures were also repeated in triplicate and compared to a control culture grown at the same time. Algae were harvested and lipids were extracted for gravimetric analysis.
(§4) The nonpolar algal extracts were harvested from 500 mL cultures when indicated on growth curves, a minimum of 3 days into stationary phase.
(§5) Cell density was monitored by measuring absorbance at 680 nm every 1-2 days.
(§6) 500-mL cultures were harvested 6 days into stationary phase based on absorbance values. Cells were concentrated by centrifugation and lyophilization to remove water. Nonpolar lipids were extracted by sonication and solvent (chloroform-methanol and PBS buffer). […] Changes in lipid levels for batch cultures were determined by crude lipid extract mass.

Nannochloropsis salina [6] = experiment: as above; format: cell-based
Protocol: as §1, §2, §3
Cultures were harvested at day 6 in stationary phase. Cultures were pelleted, lyophilized, and extracted side-by-side. The experiment was performed in triplicate.
The nonpolar algal extracts were harvested from 500 mL cultures when indicated on growth curves, a minimum of 3 days into stationary phase. […] Cells were crushed and nonpolar lipids were extracted by sonication (Fisher Scientific Model 120 Sonic Dismembrator, ThermoFisher, San Jose) for 1 minute in chloroform, followed by chloroform-methanol extractions, washed with PBS butter, and dried under vacuum.^55-60 The crude non-polar algae extracts were then analyzed by ^1H Nuclear Magnetic Resonance (^1H NMR) for verification of TAG presence and examination of the purity of the extract (determination of level of chlorophyll).
as §5, §6

Nannochloropsis oculata [7] = experiment: as above; format: cell-based
Nannochloris sp. [8] = experiment: as above; format: cell-based; details: 500 mL batch culture
Protocol: as §1, §2, §3, §4, §5, §6

Nannochloropsis salina [9] = details: >0.8% v/v DMSO; microplates
[10] = 0.4% by volume, 500 mL culture, day 6 in stationary phase
[11] = DMSO at 0.4% v/v, batch culture
[12] = N. oculata, DMSO average, harvested day 6 of stationary phase, n=3

Question: How did the “% Lipid increase based on Nile red fluorescence intensity” value ([1]; added at exponential phase, t=day 7) turn out when `CC1CC(C)C(=O)C(C(O)CC2CC(=O)NC(=O)C2)C1` (centres unmarked) [Cycloheximide, 3-[2-(3,5-Dimethyl-2-oxocyclohexyl)-2-hydroxyethyl]glutarimide] was run?
Answer: 408%

Question: And the “% Increase based on Nile Red Fluorescence Intensity” value ([1]; added during exponential phase)?
Answer: 408%

Question: And the “Absorbance (percent increase)” value (Nannochloris sp. [2])?
Answer: −12.4%

Question: What about the “Nile Red percent increase” value (Nannochloris sp. [2]) of the same compound?
Answer: 178.1%

Question: And the “SFAs (% of total lipids)” value (Nannochloropsis oculata [3]; 40 nM (exponential), 1H NMR, Normal 24)?
Answer: 39 % of total lipids

Question: What about the “n3 PUFAs (% of UFAs)” value (Nannochloropsis oculata [3]; 40 nM (exponential), 1H NMR, Normal 37) of the same compound?
Answer: 33 % of UFAs

Question: And the “All other PUFAs and MUFAs (% of UFAs)” value (Nannochloropsis oculata [3]; 40 nM (exponential), 1H NMR, Normal 63)?
Answer: 67 % of UFAs

Question: And the “UFAs (% of total lipids)” value (Nannochloropsis oculata [3]; 40 nM (exponential), 1H NMR, Normal 76)?
Answer: 61 % of total lipids

Question: And the “Nile Red percent increase” value (Nannochloropsis oculata [4]; 4.6-41.2 nM, dose-response microplate screen)?
Answer: 87-96%

Question: And the “Nile Red Fluorescence % Increase” value (Nannochloropsis oculata [4]; N. oculata, compounds tested at 200 nM, initial screening, p<0.05)?
Answer: 137.9%

Question: What about the “effect on lipid levels” value (microalgae; added in the initial phase, <1 μM, greater than 1 μM) of the same compound?
Answer: minimal increase in lipid levels

Question: And the “effect on cell growth” value (microalgae; added in the initial phase, <1 μM, greater than 1 μM, all four species)?
Answer: inhibitory effect on cell growth

Question: With `C[S+](C)[O-]` [DMSO, dimethylsulfoxide] as the compound, how does the “effect on growth and lipid levels” value [5] read?
Answer: No significant changes; also recorded: decrease in growth and lipid production; also recorded: no effect, or a small decrease in growth and lipid production

Question: What about the Absorbance at harvest (Nannochloropsis salina [6]; [10]) of the same compound?
Answer: 1.50 ± 0.13

Question: And the “Dry weight” value (Nannochloropsis salina [6]; [10])?
Answer: 429.90 ± 109.74 mg

Question: And the “Extract Weight” value (Nannochloropsis salina [6]; [10])?
Answer: 92.83 ± 6.37 mg

Question: And the “Number of Cells” value (Nannochloropsis salina [6]; [10])?
Answer: 1.44E+09

Question: What about the “Recovered Weight” value (Nannochloropsis salina [6]; [10]) of the same compound?
Answer: 393.17 ± 112.84 mg

Question: And the “effect on growth and lipid levels” value (Nannochloropsis salina [6]; 500 mL batch culture)?
Answer: increased growth and lipid levels

Question: And the “increase in lipid levels” value (Nannochloropsis salina [6]; [11])?
Answer: 25%

Question: What about the “increase in lipid levels” value (Nannochloropsis salina [6]; DMSO, batch culture (Table 18)) of the same compound?
Answer: up to 50%

Question: What about the “increase in lipid levels relative to control without DMSO” value (Nannochloropsis oculata [7]; 1.0% DMSO, batch cultures) of the same compound?
Answer: 78%

Question: And the “effect on growth and lipid levels” value (Nannochloropsis oculata [7]; 500 mL batch culture)?
Answer: increased growth and lipid levels

Question: And the “increase in lipid levels” value (Nannochloropsis oculata [7]; [11])?
Answer: 39%

Question: What about the Absorbance at harvest (Nannochloropsis oculata [7]; N. oculata, DMSO (0.4%), n=3) of the same compound?
Answer: 1.776 ± 0.060

Question: And the Dry weight (Nannochloropsis oculata [7]; N. oculata, DMSO (0.4%), n=3)?
Answer: 409.2 ± 105.6

Question: What about the “Extract Weight” value (Nannochloropsis oculata [7]; N. oculata, DMSO (0.4%), n=3) of the same compound?
Answer: 67.2 ± 7.8

Question: And the Absorbance at harvest (Nannochloropsis oculata [7]; N. oculata, DMSO (1%), n=2)?
Answer: 1.827 ± 0.288

Question: What about the Dry weight (Nannochloropsis oculata [7]; N. oculata, DMSO (1%), n=2) of the same compound?
Answer: 280.4 ± 88.0

Question: And the “Extract Weight” value (Nannochloropsis oculata [7]; N. oculata, DMSO (1%), n=2)?
Answer: 47.2 ± 11.0

Question: And the Absorbance at harvest (Nannochloropsis oculata [7]; [12])?
Answer: 1.83

Question: And the “Dry weight” value (Nannochloropsis oculata [7]; [12])?
Answer: 283.27 mg

Question: And the “Extract Weight” value (Nannochloropsis oculata [7]; [12])?
Answer: 56.83 mg

Question: What about the “Number of Cells” value (Nannochloropsis oculata [7]; [12]) of the same compound?
Answer: 2.32E+09

Question: What about the “Recovered Weight” value (Nannochloropsis oculata [7]; [12]) of the same compound?
Answer: 267.27 mg

Question: What about the “effect on growth and lipid levels” value (Nannochloris sp. [8]) of the same compound?
Answer: No significant changes; also recorded: no effect, or a small decrease in growth and lipid production

Question: What about the “SFAs (%)” value (Nannochloropsis oculata [3]; N. oculata, 1%, n=1, Normal 0 ± 1) of the same compound?
Answer: 7%

Question: What about the “MUFAs (%)” value (Nannochloropsis oculata [3]; N. oculata, 1%, n=1, Normal 4 ± 7) of the same compound?
Answer: 32%

Question: And the “n3 PUFAs (%)” value (Nannochloropsis oculata [3]; N. oculata, 1%, n=1, Normal 28 ± 4)?
Answer: 17%

Question: What about the “PUFAs (%)” value (Nannochloropsis oculata [3]; N. oculata, 1%, n=1, Normal 96 ± 7) of the same compound?
Answer: 61%

Question: What about the “effect on growth and cell density” value (Nannochloropsis salina [9]) of the same compound?
Answer: detrimental effect on growth and cell density

Question: What about the “increase in cell density” value (Nannochloropsis oculata [4]; 0.4% DMSO, microplate screen) of the same compound?
Answer: 57%

Question: And the “increase in lipid levels” value (Nannochloropsis oculata [4]; 0.4% DMSO, microplate screen)?
Answer: 75%

Question: What about the “effect on growth and cell density” value (Nannochloropsis oculata [4]; >0.8% v/v DMSO, microplates) of the same compound?
Answer: detrimental effect on growth and cell density

Question: What about the “effect on growth (deviation from control growth)” value (microalgae; 0.4% v/v DMSO) of the same compound?
Answer: ≤ 10%

Question: And the “effect on growth” value (microalgae; less than 0.4% v/v DMSO, microplates, any of the four microalgae strains)?
Answer: did not show a toxic or detrimental effect on the growth

Question: What about the “effect on growth” value (microalgae; ≧1% v/v DMSO) of the same compound?
Answer: detrimental growth effects
